Experimental data reported in PMC8360061, “Search for the Active Ingredients from a 2‐Aminothiazole DMSO Stock Solution with Antimalarial Activity” (Chemmedchem, 2021).
Entries after “also recorded” stand apart in the source; their conditions may differ.

Key:
[1] = target: PK/LDH (pyruvate kinase and lactate dehydrogenase); assay: PK/LDH auxiliary enzyme assay; format: biochemical
Protocol: Firstly, we performed a temperature‐dependent decomposition study of compound 1 at 10 mM concentration in DMSO at room temperature (RT), +4 °C and −20 °C (SI, Section 2.3). […] Besides visual inspection of the colour changes of the test sample (see Table 2), the decomposition was monitored by HRMS and NMR spectroscopy. […] Furthermore, all three samples were tested for their inhibitory activity against PfIspE after the incubation period. […] In the IspE assay, the activity of the target enzyme is coupled to the oxidation of NADH (which can be followed spectrophotometrically at 340 nm) via a cascade of the auxiliary enzymes pyruvate kinase and lactate dehydrogenase (PK/LDH).[10] […] Three samples of compound 1 were tested in PK/LDH assay (Table 2).
1.1 General Procedure for Enzymatic Assay
The cloning, expression and purification of Plasmodium falciparum[1] and Escherichia coli[2,3] and their subsequent assays followed the previously reported procedures .[1] In some specified cases, the tested compound was dissolved in methanol or acetonitrile for the assay .
Due to the nature of the study, some decomposition samples w ere only tested once and thus, for some formal standard error, […]
For the final purified compounds, replicates were measured and standard deviation was calculated at least from two replicates. […]
2.) Decomposition Study Procedure
All reagents and solvents were of commercial quality and used without further purification.
Low resolution mass analytics and purity controls were carried out using an Ultimate 3000-ISQ liquid-chromatography mass spectrometry (LCMS) system (Thermo Fisher Scientific, Dreieich, Germany) consisting of a Dionex UltiMate pump, an autosampler, DAD detector and an ESI quadrupole mass spectrometer. NMR spectra were recorded on a Bruker AV 500 or Ascend 700 (1H, 500 MHz or 700 MHz; 13C, 126 MHz or 175 MHz; 19F, 470 MHz) spectrometer. All spectra were measured in DMSO -d6, methanol-d4, acetone-d6 or acetonitrile-d3 to which reported

[2] = Decomposition study of stock solutions (HRMS, NMR); format: physicochemical
Protocol: Firstly, we performed a temperature‐dependent decomposition study of compound 1 at 10 mM concentration in DMSO at room temperature (RT), +4 °C and −20 °C (SI, Section 2.3). After seven days, 64 % of the sample stored at RT had decomposed (SI, Table S1). Besides visual inspection of the colour changes of the test sample (see Table 2), the decomposition was monitored by HRMS and NMR spectroscopy. […] Furthermore, all three samples were tested for their inhibitory activity against PfIspE after the incubation period. […] This fact correlated with the degree of chemical transformation of compound 1 (Table S1). In the IspE assay, the activity of the target enzyme is coupled to the oxidation of NADH (which can be followed spectrophotometrically at 340 nm) via a cascade of the auxiliary enzymes pyruvate kinase and lactate dehydrogenase (PK/LDH).[10] Therefore, we next confirmed, whether the effects observed in the IspE assay are due to inhibition of the target enzyme or of the auxiliary enzymes. Three samples of compound 1 were tested in PK/LDH assay (Table 2).
Secondly, we analysed if spontaneous chemical transformation of compound 1 may depend on the solvent used for the preparation of its stock solutions. We incubated 10 mM stock preparations of compound 1 in DMSO, acetonitrile (ACN) and methanol (MeOH) at RT. Aliquots were taken during 16 days of incubation and tested against the enzyme PfIspE (Table 3). […] For further decomposition incubation of compound 1, only DMSO was used as solvent.
2.3 Temperature-Dependent Study
Compound 1 was dissolved in DMSO to afford 10 mM stock solution, in the scale of 3.65 mg in 1 mL. Three aliquots were prepared and one each was stored inside a light -protecting box at different temperatures: room temperature (RT), +4 °C and –20 °C. Samples were only taken to RT for the minimum time required for sampling. Samples were further d iluted with acetonitrile to 10 µM (1:1000) for HRMS analysis. For calibration, a fresh stock solution of the compound 1 was prepared shortly before the analysis. The concentration range used for the calibration was from 10 µM to 20 nM, including 10 samples with 1:1 dilutions starting from the highest concentration (Appendix I). In all of the calibration points and samples, diphenhydramine ( m/z: 256.16907 [M+H]+) was included as an internal standard at the concentration of 500 nM. The results were analysed using Thermo Xcalibur Quan Browser. Similarly, three NMR samples of compound 1 were prepared in DMSO-d6 and each stored at different temperatures; RT, +4 °C and –20 °C, (Figure S8).
Table S1. Summary of the decomposition of compound 1 at different temperatures with the corresponding enzymatic activities measured after three months.
The Percentage of Compound 1 Left After Degradation after 3 months of decomposition[b] Temperature Day 7 1 month 2 months PfIspE IC50 EcIspE IC50 PK/LDH IC50 […]
[a] [b] Errors given as formal standard error. n.d.: not determined, PK/LDH: pyruvate kinase and lactate dehydrogenase, Pf: Plasmodium falciparum, Ec: Escherichia coli.
Figure S7. The HRMS recorded for the samples submitted to the enzyme assay after 3 months of decomposition with the corresponding colour differences. […]
2.4 Solvent-Dependent Study
As in the Section 2.3, stock solutions of compound 1 were prepared in DMSO, ACN and MeOH and stored at RT for 16 days in a box protected from light . Samples were collected during this time and the enzymatic activity was analysed for them as in main text, Table […]
compound 1 for ACN or MeOH was detectible (Figures S11–12). Similarly, the old samples of compound 1 used for enzyme and cell assays were analysed with HRMS (Figure S13). Additionally, NMR sample in MeOH was prepared and measured over time while stored at RT. As a follow-up experiment, the stability of compound 1 was determined for its 10 mM stock solution in Tris-HCl (pH 7.6) with and without 5% DMSO and Cyrene™ with HRMS (Figure S16–18). […]

## CCn1c(C)cc(-c2csc(Nc3ccccc3C(F)(F)F)n2)c1C [Compound 1]
[1]; 10 mM DMSO stock stored at +4 °C, measured after 3 months
  IC50: 45 ± 6 µM
[1]; 10 mM DMSO stock stored at RT, measured after 3 months
  IC50: 34 ± 4 µM
[1]; 10 mM stock in DMSO at RT, 7 days of incubation
  IC50: 48 ± 16 µM
[1]; 10 mM stock in DMSO at RT, 9 days of incubation
  IC50: 57 ± 22 µM
[1]; 10 mM stock in DMSO at RT, 12 days of incubation
  IC50: 2 ± 1 µM
[1]; 10 mM stock in DMSO at RT, 14 days of incubation
  IC50: 50 ± 11 µM
[1]; 10 mM stock in DMSO at RT, 16 days of incubation
  IC50: 86 ± 17 µM
[1]; analytical sample, DMSO at RT, 4 days of incubation, dissolved in methanol shortly before the assay
  IC50: 95 ± 21 µM
[1]; old decomposed sample, control run at the same time as the temperature study
  IC50: 40 ± 4 µM
[2]; 10 mM in DMSO, +4 °C
  Degradation after 2 months: 79%
[2]; 10 mM in DMSO, +4 °C, 1 month
  Percentage of Compound 1 Left After Degradation: 48%
[2]; 10 mM in DMSO, +4 °C, 2 months
  Percentage of Compound 1 Left After Degradation: 21%
[2]; 10 mM in DMSO, +4 °C, Day 7
  Percentage of Compound 1 Left After Degradation: 96%
[2]; 10 mM in DMSO, RT
  Degradation after 2 months: 100%
  decomposition after two weeks (in words): fully decomposed
  share of sample decomposed after seven days: 64%
[2]; 10 mM in DMSO, RT, 1 month
  Percentage of Compound 1 Left After Degradation: 1%
[2]; 10 mM in DMSO, RT, 2 months
  Percentage of Compound 1 Left After Degradation: 0%
[2]; 10 mM in DMSO, RT, Day 7
  Percentage of Compound 1 Left After Degradation: 36%
[2]; 10 mM in DMSO, −20 °C
  Degradation after 2 months: 18%
[2]; 10 mM in DMSO, −20 °C, 1 month
  Percentage of Compound 1 Left After Degradation: 91%
[2]; 10 mM in DMSO, −20 °C, 2 months
  Percentage of Compound 1 Left After Degradation: 82%
[2]; 10 mM in DMSO, −20 °C, Day 7
  Percentage of Compound 1 Left After Degradation: 96%
[2]; 10 mM in DMSO, −20 °C, up to two months
  decomposition at −20 °C (in words): decomposition hardly occurs; also recorded: only minimal decomposition
[2]; 10 mM stock in Cyrene, RT, after one day
  decomposition in Cyrene (HRMS, in words): clear decomposition
[2]; stock solution in ACN at RT for 16 days
  decomposition in ACN (HRMS, in words): no decomposition
[2]; stock solution in MeOH at RT for 16 days
  decomposition in MeOH (HRMS, in words): no decomposition
